The NIST ThermoML archive (doi:10.1021/acs.jced.5b00654)
Several values for one entry are separate records, joined by “and”; a condition that tells them apart may be missing. Identical values can stand only once.

Details: Fluid (supercritical or subcritical phases); for viscosity: Vibrating wire viscometry; for mass density: Buoyancy - hydrostatic balance with magnetic suspension - one sinker

CCCC [butane]
Details	mass density	viscosity
348.15 K, 63.3 kPa	–	0.008591 mPa·s
348.15 K, 337.86 kPa	7.2315 kg/m3	0.008603 mPa·s
348.15 K, 337.88 kPa	7.2315 kg/m3	0.008607 mPa·s
348.15 K, 338.38 kPa	7.2445 kg/m3	0.008599 mPa·s
348.15 K, 340.91 kPa	7.3031 kg/m3	0.008599 mPa·s
348.15 K, 454.98 kPa	9.9811 kg/m3	0.00861 mPa·s
348.15 K, 455.21 kPa	9.9833 kg/m3	0.00861 mPa·s
348.15 K, 516.69 kPa	11.497 kg/m3	0.008615 mPa·s
348.15 K, 516.76 kPa	11.497 kg/m3	0.008618 mPa·s
373.13 K, 106.93 kPa	2.0348 kg/m3	0.009211 mPa·s
373.13 K, 106.95 kPa	2.0363 kg/m3	0.009213 mPa·s
373.13 K, 106.98 kPa	2.037 kg/m3	0.00921 mPa·s
373.13 K, 157.77 kPa	3.0215 kg/m3	0.009217 mPa·s
373.13 K, 916.45 kPa	20.053 kg/m3 and 20.052 kg/m3	0.009329 mPa·s and 0.009334 mPa·s
373.14 K, 57.69 kPa	1.0901 kg/m3	0.009211 mPa·s
373.14 K, 57.72 kPa	1.0901 kg/m3	0.009214 mPa·s
373.14 K, 57.76 kPa	1.0909 kg/m3	0.009207 mPa·s
373.14 K, 157.75 kPa	3.0215 kg/m3	0.00922 mPa·s
373.14 K, 210.39 kPa	4.0609 kg/m3	0.009225 mPa·s
373.14 K, 273.38 kPa	5.3326 kg/m3	0.00923 mPa·s
373.14 K, 274.72 kPa	5.3593 kg/m3	0.009227 mPa·s
373.14 K, 493.67 kPa	9.9707 kg/m3	0.009255 mPa·s
373.14 K, 493.81 kPa	9.9744 kg/m3	0.009247 mPa·s
373.14 K, 572.54 kPa	11.724 kg/m3	0.009263 mPa·s
373.14 K, 572.6 kPa	11.728 kg/m3	0.009259 mPa·s
373.14 K, 669.81 kPa	13.955 kg/m3	0.00928 mPa·s
373.14 K, 670 kPa	13.959 kg/m3	0.009283 mPa·s
373.14 K, 751.04 kPa	15.893 kg/m3	0.009293 mPa·s
373.14 K, 838.34 kPa	18.049 kg/m3	0.009315 mPa·s
373.14 K, 1095.4 kPa	24.953 kg/m3	0.009394 mPa·s
373.14 K, 1095.5 kPa	24.958 kg/m3	0.00939 mPa·s
373.14 K, 1123 kPa	–	0.009464 mPa·s
373.14 K, 1262.7 kPa	30.019 kg/m3	0.009463 mPa·s
373.14 K, 1263 kPa	30.031 kg/m3	–
373.15 K, 210.37 kPa	4.0602 kg/m3	0.009228 mPa·s
373.15 K, 344.33 kPa	6.7909 kg/m3	0.00923 mPa·s
373.15 K, 344.35 kPa	6.7909 kg/m3	0.009234 mPa·s
373.15 K, 392.71 kPa	7.8028 kg/m3	0.009241 mPa·s
373.15 K, 439.63 kPa	8.8018 kg/m3	0.009247 mPa·s
373.15 K, 441.23 kPa	8.8343 kg/m3	0.009243 mPa·s
373.15 K, 750.55 kPa	15.881 kg/m3	0.009298 mPa·s
373.15 K, 1366.4 kPa	33.46 kg/m3	0.009514 mPa·s
373.15 K, 1367.1 kPa	33.484 kg/m3	0.009518 mPa·s
423.11 K, 2532.5 kPa	59.203 kg/m3	0.01157 mPa·s
423.12 K, 2534 kPa	59.251 kg/m3	0.01158 mPa·s
423.13 K, 2535.6 kPa	59.303 kg/m3	0.01157 mPa·s
423.16 K, 195.54 kPa	3.2893 kg/m3	0.0104 mPa·s
423.16 K, 195.59 kPa	3.2893 kg/m3	0.0104 mPa·s
423.17 K, 450.91 kPa	7.7808 kg/m3	0.01045 mPa·s
423.17 K, 452.37 kPa	7.8076 kg/m3	0.01045 mPa·s
423.17 K, 1490.2 kPa	29.071 kg/m3	0.01078 mPa·s
423.17 K, 2272.3 kPa	50.31 kg/m3	0.01129 mPa·s
423.19 K, 654.26 kPa	11.533 kg/m3	0.0105 mPa·s
423.19 K, 1490 kPa	29.063 kg/m3	0.01078 mPa·s
423.19 K, 3006 kPa	79.774 kg/m3	0.01234 mPa·s
423.2 K, 653.48 kPa	11.519 kg/m3	0.01049 mPa·s
423.2 K, 2781.1 kPa	69.059 kg/m3	0.01191 mPa·s
423.2 K, 2781.6 kPa	69.058 kg/m3	0.01191 mPa·s
423.2 K, 3005.8 kPa	79.773 kg/m3	0.01233 mPa·s
423.2 K, 3170.2 kPa	89.28 kg/m3	0.01273 mPa·s
423.24 K, 1016.1 kPa	18.65 kg/m3	0.0106 mPa·s
423.25 K, 1015.9 kPa	18.648 kg/m3	0.01059 mPa·s
423.26 K, 884.12 kPa	15.981 kg/m3	0.01056 mPa·s
423.26 K, 884.38 kPa	15.987 kg/m3	0.01055 mPa·s
423.28 K, 3171.4 kPa	89.266 kg/m3	0.01273 mPa·s
423.47 K, 3280.9 kPa	96.663 kg/m3	0.01307 mPa·s
423.48 K, 3280.8 kPa	96.642 kg/m3	0.01306 mPa·s
424.21 K, 3176.8 kPa	88.401 kg/m3	0.01272 mPa·s
424.21 K, 3177 kPa	88.415 kg/m3	0.01273 mPa·s
428.08 K, 194.36 kPa	3.2322 kg/m3	0.01054 mPa·s
428.09 K, 194.34 kPa	3.2308 kg/m3	0.01053 mPa·s
428.09 K, 5149.9 kPa	360.26 kg/m3	0.04425 mPa·s
428.09 K, 5150.2 kPa	360.25 kg/m3	–
